# Source: PMC3230330 (Bioorganic & medicinal chemistry, 2011)
# Like-named read-outs stand apart in the source and are kept apart here.
# Experiments:
# Anthrax LF = Anthrax LF (Bacillus anthracis, UniProt P15917); test: biochemical
# BoNT/A LC [1] = molecular target: T1, BoNT/A LC (Clostridium botulinum, UniProt P0DPI0); test: biochemical; assay type: biochemical
# human MMP-2 = human MMP-2 (Homo sapiens, UniProt P08253); assay type: biochemical
# BoNT/A LC [2] = molecular target: T1, BoNT/A LC; conditions: cited from earlier work
# BoNT/A LC [3] = molecular target: T1, BoNT/A LC; assay type: biochemical
# BoNT/B LC = conditions: cited from earlier work
# BoNT/A LC [4] = molecular target: T1, BoNT/A LC; assay type: biochemical; remark: listed apart in the source
# human MMP-1 = human MMP-1 (Homo sapiens, UniProt P03956); assay type: biochemical
# human MMP-9 = human MMP-9 (Homo sapiens, UniProt P14780); assay type: biochemical
# Chain of human MMP-9 (P14780 94-707): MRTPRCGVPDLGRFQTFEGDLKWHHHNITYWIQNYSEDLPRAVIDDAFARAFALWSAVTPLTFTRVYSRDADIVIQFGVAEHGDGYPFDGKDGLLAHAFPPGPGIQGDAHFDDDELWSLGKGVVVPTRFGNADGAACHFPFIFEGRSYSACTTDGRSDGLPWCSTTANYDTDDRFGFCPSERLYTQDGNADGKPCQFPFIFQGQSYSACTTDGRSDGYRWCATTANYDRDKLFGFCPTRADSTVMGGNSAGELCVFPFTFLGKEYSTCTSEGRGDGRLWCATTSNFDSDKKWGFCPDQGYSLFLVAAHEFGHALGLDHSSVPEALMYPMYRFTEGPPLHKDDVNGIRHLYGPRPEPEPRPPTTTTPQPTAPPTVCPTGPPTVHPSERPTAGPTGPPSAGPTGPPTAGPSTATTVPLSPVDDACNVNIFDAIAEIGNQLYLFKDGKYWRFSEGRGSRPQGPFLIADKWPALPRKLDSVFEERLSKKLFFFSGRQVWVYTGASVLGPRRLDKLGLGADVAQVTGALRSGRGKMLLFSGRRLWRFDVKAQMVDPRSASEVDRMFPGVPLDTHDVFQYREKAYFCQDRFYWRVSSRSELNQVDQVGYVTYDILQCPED
# Chain of Anthrax LF (P15917 34-809 limits assumed): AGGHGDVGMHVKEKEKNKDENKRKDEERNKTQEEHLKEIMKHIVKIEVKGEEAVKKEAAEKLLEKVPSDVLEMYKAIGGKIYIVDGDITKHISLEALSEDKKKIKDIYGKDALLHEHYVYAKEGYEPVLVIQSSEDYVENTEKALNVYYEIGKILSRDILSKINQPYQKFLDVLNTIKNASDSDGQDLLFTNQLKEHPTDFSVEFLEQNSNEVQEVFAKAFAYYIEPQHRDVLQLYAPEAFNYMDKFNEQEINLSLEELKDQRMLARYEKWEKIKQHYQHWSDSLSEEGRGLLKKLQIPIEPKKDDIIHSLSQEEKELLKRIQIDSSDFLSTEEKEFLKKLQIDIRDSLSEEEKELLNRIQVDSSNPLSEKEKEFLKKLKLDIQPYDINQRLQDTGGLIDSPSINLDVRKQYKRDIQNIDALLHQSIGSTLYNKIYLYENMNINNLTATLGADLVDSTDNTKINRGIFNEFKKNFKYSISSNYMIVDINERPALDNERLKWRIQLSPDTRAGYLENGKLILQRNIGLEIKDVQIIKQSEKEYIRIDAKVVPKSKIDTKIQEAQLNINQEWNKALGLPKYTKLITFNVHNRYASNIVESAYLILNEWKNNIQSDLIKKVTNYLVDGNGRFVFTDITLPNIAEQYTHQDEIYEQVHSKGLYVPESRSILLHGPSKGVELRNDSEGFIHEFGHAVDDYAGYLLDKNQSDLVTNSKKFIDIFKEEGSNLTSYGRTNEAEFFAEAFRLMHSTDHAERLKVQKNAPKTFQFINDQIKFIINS
# T1 sequence (P0DPI0 2-448 limits assumed): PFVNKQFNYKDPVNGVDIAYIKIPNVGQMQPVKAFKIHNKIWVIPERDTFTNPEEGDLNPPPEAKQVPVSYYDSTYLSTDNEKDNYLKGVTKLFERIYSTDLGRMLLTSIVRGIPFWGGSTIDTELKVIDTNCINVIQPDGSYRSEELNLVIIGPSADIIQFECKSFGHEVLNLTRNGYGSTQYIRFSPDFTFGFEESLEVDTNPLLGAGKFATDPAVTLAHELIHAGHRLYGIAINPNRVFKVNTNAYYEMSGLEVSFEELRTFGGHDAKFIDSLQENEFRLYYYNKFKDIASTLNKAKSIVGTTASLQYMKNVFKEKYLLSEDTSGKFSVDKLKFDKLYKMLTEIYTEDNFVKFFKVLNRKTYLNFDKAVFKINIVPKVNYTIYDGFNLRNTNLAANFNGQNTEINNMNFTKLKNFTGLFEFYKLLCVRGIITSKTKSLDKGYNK
# Chain of human MMP-2 (P08253 110-660): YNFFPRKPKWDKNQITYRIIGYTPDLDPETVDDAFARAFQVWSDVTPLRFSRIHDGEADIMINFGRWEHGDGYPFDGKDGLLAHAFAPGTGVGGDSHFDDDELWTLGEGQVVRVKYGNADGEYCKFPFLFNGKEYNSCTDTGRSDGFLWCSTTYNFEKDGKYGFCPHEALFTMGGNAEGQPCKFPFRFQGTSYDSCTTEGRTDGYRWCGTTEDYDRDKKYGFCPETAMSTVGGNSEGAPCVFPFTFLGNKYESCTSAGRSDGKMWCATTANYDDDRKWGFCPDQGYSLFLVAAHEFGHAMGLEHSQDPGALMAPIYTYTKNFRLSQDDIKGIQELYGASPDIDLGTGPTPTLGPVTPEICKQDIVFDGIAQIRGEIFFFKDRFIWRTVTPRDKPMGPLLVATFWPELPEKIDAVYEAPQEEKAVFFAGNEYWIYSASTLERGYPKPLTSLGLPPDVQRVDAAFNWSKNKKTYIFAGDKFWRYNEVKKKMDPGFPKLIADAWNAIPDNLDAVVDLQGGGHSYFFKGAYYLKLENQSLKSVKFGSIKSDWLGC
# Chain of human MMP-1 (P03956 100-469): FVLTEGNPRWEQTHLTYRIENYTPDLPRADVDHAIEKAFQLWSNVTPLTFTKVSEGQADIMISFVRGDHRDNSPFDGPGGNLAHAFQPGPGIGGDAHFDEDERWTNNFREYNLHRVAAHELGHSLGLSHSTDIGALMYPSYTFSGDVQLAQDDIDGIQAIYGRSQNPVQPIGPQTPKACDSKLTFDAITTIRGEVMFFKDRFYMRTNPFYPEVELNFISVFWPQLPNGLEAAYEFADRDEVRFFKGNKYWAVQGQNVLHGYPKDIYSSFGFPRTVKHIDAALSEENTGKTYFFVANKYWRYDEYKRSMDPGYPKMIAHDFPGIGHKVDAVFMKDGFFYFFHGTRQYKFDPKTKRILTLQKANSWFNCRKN
compound,measurement,setting,value
"2-[1-Cyano-2-(2,4-dichloropyrimidin-3-yl)vinyl]-benzimidazole [Compound 10b]",IC50,Anthrax LF; read-out: Anthrax LF IC50,> 100 µM
"Cn1c(/C(C#N)=C/c2ccc(-c3cccs3)s2)[n+](C)c2ccccc21.[I-] [Compound 15, 2-(2-(2,2'-Bithiophen-5-yl)-1-cyanovinyl)-1,3-dimethyl-1H-benzo[d]imidazol-3-ium iodide]",BoNT/A LC inhibitory potency (in words),BoNT/A LC [1],detrimental to potency
"N#C/C(=C\c1ccc(-c2cccs2)s1)c1ccc2ccccc2n1 [Compound 14d, 3-(2,2'-Bithiophen-5-yl)-2-(quinolin-2-yl)acrylonitrile]",BoNT/A LC inhibitory potency (in words),BoNT/A LC [1],eliminated inhibitory potency
2-(1-Cyano-2-phenylvinyl)benzimidazole [Compound 8a],BoNT/A LC inhibitory potency (in words),BoNT/A LC [1],eliminated inhibitory potency
"COc1cc(C=C(C#N)c2nc3ccccc3[nH]2)cc(O)c1OC [Compound 8k, 2-(1H-Benzo[d]imidazol-2-yl)-3-(3-hydroxy-4,5-dimethoxyphenyl)acrylonitrile]",IC50,Anthrax LF,> 100 µM
same,BoNT/A LC inhibitory potency (in words),BoNT/A LC [1],significantly decreased or diminished activity
same,IC50,BoNT/A LC [1],> 100 µM
"N#C/C(=C\c1ccc(-c2cccs2)s1)c1nc2ccccc2o1 [Compound 14c, 3-(2,2'-Bithiophen-5-yl)-2-(benzo[d]oxazol-2-yl)acrylonitrile]",BoNT/A LC inhibitory potency (in words),BoNT/A LC [1],eliminated inhibitory potency
"COc1cc(C=C(C#N)c2nc3ccccc3[nH]2)cc(Br)c1O [Compound 8h, 2-[1-Cyano-2-(3-bromo-5-methoxy-4-hydroxyphenyl)vinyl]benzimidazole]",IC50,Anthrax LF,> 100 µM
same,BoNT/A LC inhibitory potency (in words),BoNT/A LC [1],significantly decreased or diminished activity
same,IC50,BoNT/A LC [1],94 µM
"N#C/C(=C\c1ccc(-c2cccs2)s1)c1cc2ccccc2[nH]1 [Compound 14a, 3-(2,2'-Bithiophen-5-yl)-2-(1H-indol-2-yl)acrylonitrile]",BoNT/A LC inhibitory potency (in words),BoNT/A LC [1],eliminated inhibitory potency
"Cc1ccc(/C=C(\C#N)c2nc3ccccc3[nH]2)s1 [Compound 12a, 2-(1H-Benzo[d]imidazol-2-yl)-3-(5-methylthiophen-2-yl)acrylonitrile]",BoNT/A LC inhibitory potency (in words),BoNT/A LC [1],no BoNT/A LC inhibition
"N#C/C(=C\c1ccc(-c2ccco2)s1)c1nc2ccccc2[nH]1 [Compound 12d, 2-(1H-Benzo[d]imidazol-2-yl)-3-(5-(furan-2-yl)thiophen-2-yl)acrylonitrile]",BoNT/A LC inhibitory potency (in words),BoNT/A LC [1],approximately two-fold less potent than 5
"N#C/C(=C\c1ccc(-c2cccs2)s1)c1nc2ccccc2[nH]1 [Compound 5, 3-(2,2'-Bithiophen-5-yl)-2-(1H-benzo[d]imidazol-2-yl)acrylonitrile]",MMP-2 IC50,human MMP-2,neither compound inhibited
same,kinetics with respect to the substrate,BoNT/A LC [2],noncompetitive
same,Inactivated by cysteine,BoNT/A LC [3],"no significant, non-specific reactivity"
same,Inactivated by glutathione,BoNT/A LC [3],"no significant, non-specific reactivity"
same,Inactivated by zinc chelation,BoNT/A LC [3],neither are metal chelating agents
same,BoNT/B LC FRET IC50,BoNT/B LC,neither 4 nor 5 inhibited
same,manner of BoNT/A LC inhibition,BoNT/A LC [4],time-dependent
same,MMP-1 IC50,human MMP-1,neither compound inhibited
same,MMP-9 IC50,human MMP-9,neither compound inhibited
"N#C/C(=C\c1ccc(-c2cccs2)o1)c1nc2ccccc2[nH]1 [Compound 12e, 2-(1H-Benzo[d]imidazol-2-yl)-3-(5-(thiophen-2-yl)furan-2-yl)acrylonitrile hemiacetate]",BoNT/A LC inhibitory potency (in words),BoNT/A LC [1],no activity was observed
"N#CC(=Cc1ccc(-n2ccnc2)cc1)c1nc2ccccc2[nH]1 [Compound 8j, 3-(4-(1H-Imidazol-1-yl)phenyl)-2-(1H-benzo[d]imidazol-2-yl)acrylonitrile]",IC50,Anthrax LF,> 100 µM
same,BoNT/A LC inhibitory potency (in words),BoNT/A LC [1],significantly lower potency with respect to 4
same,IC50,BoNT/A LC [1],73 µM
"N#C/C(=C\c1ccc(-c2ccccc2)cc1)c1nc2ccccc2[nH]1 [Compound 8i, 2-(1H-Benzo[d]imidazol-2-yl)-3-(biphenyl-4-yl)acrylonitrile]",BoNT/A LC inhibitory potency (in words),BoNT/A LC [1],significantly lower potency with respect to 4
COc1ccc(/C=C(\C#N)c2nc3ccccc3[nH]2)cc1I [Compound 4],MMP-2 IC50,human MMP-2,neither compound inhibited
same,kinetics with respect to the substrate,BoNT/A LC [2],noncompetitive
same,Inactivated by cysteine,BoNT/A LC [3],inactivated
same,Inactivated by glutathione,BoNT/A LC [3],inactivated
same,Inactivated by zinc chelation,BoNT/A LC [3],neither are metal chelating agents
same,BoNT/B LC FRET IC50,BoNT/B LC,neither 4 nor 5 inhibited
same,manner of BoNT/A LC inhibition,BoNT/A LC [4],time-dependent
same,MMP-1 IC50,human MMP-1,neither compound inhibited
same,MMP-9 IC50,human MMP-9,neither compound inhibited
"N#C/C(=C\c1ccc(-c2cccs2)s1)c1nc2ccccc2s1 [Compound 14b, 3-(2,2'-Bithiophen-5-yl)-2-(benzo[d]thiazol-2-yl)acrylonitrile]",BoNT/A LC inhibitory potency (in words),BoNT/A LC [1],eliminated inhibitory potency
"COc1cc(/C=C(\C#N)c2nc3ccccc3[nH]2)cc(Cl)c1O [Compound 8g, 2-[1-Cyano-2-(3-chloro-5-methoxy-4-hydroxyphenyl)vinyl]benzimidazole]",BoNT/A LC inhibitory potency (in words),BoNT/A LC [1],significantly decreased or diminished activity
"COc1ccc(/C=C(\C#N)c2nc3ccccc3[nH]2)cc1OC [Compound 8f, 2-(1H-Benzo[d]imidazol-2-yl)-3-(3,4-dimethoxyphenyl)acrylonitrile]",BoNT/A LC inhibitory potency (in words),BoNT/A LC [1],eliminated inhibitory potency
"N#C/C(=C\c1cccs1)c1nc2ccccc2[nH]1 [Compound 12c, 2-(1H-Benzo[d]imidazol-2-yl)-3-(thiophen-2-yl)acrylonitrile]",BoNT/A LC inhibitory potency (in words),BoNT/A LC [1],no BoNT/A LC inhibition
"Cc1cc(/C=C(\C#N)c2nc3ccccc3[nH]2)sc1C [Compound 12b, 2-(1H-Benzo[d]imidazol-2-yl)-3-(4,5-dimethylthiophen-2-yl)acrylonitrile]",BoNT/A LC inhibitory potency (in words),BoNT/A LC [1],no BoNT/A LC inhibition
